Experimental data as given in patent US10897891B2, “Compositions and methods for prolonged cell storage” (Board of Regents, The University of Texas System, priority 2015, dated 2021).
Entries after “also recorded” stand apart in the source; their conditions may differ.

Columns and labels:
platelets [1] = experiment: Cholesterol membrane capping with the fluorescent cholesterol probe filipin (Experiment F); format: cell-based, human; details: 5° C. overnight
Description: (Note 1: Stock solutions were prepared in DMSO that was rigorously dried with an equal volume of A-3 molecular sieve that had been regenerated at 300° C. overnight. The resultant filipin stock 25 mg/ml DMSO solution was prepared in a nitrogen atmosphere and frozen at −70° C. to limit water induced hydrolysis.)
Approximately 3 ml of residual pooled platelets were obtained after 72 hr at standard storage conditions. 100 ul of platelets were mixed with 100 ul of fresh filipin (300 ug/ml in PBS+10%, DMSO) in each of 12 wells of a 24 well cluster plate and incubated at room temperature for 35 min. (DMSO was included to assist with membrane loading of the highly insoluble filipin molecule.) All wells were then diluted by adding 2.5 ml of PBS and incubated another 15 min to dilute unbound filipin and allow removal of DMSO by dilution. The plate was next centrifuged at 2500 g for 20 min in a pre-warmed centrifuge at 22° C. All wells were gently aspirated and the PBS was replaced with 3 ml of control or test platelets as follows:
All wells were next incubated 20 min at room temperature to allow DMSO to equilibrate. (Note: the final DMSO concentration in the Control wells or the PEG-400 only wells would be 6 parts in 10,000 or 0.06%.) Next the plate was held at 5° C. overnight and in the morning centrifuged in a 5° C. equilibrated centrifuge at 2,500 g for 20 min. Cold 4% Formalin/PBS was carefully added and the plate returned to 5° C. for overnight incubation. At 18 hr the plate was allowed to fix again at room temperature in the dark for 4 hours. Subsequently the formalin was aspirated and the plate washed with 4 changes of 2 ml of PBS. Finally, excess fluid was removed and the wells were photographed with an inverted fluorescent microscope. Note 2: Filipin is rapidly photo-bleached with the UV, thus the light intensity was lowered with a barrier filter of ˜20% was used. This filter setting was used consistently for all photographs. All photographs were taken under the same camera conditions. No post photographic image alterations were made. […]

platelets [2] = experiment: Platelet aggregation and shape after cold storage (microscopy, Experiment A); format: cell-based, human; details: 2% final PEG-400, 5° C., 26 days, rotation 70 cycles per minute
Description: Photomicrographs were taken with a Nikon E400 microscope with an Insight 18.2 Color Camera and Spot 5.1 image capture software. No image adjustments were performed. Fluorescent microscopy was performed using a Leica DMIL photomicroscope and Leica LAS V3.8 image acquisition software. No post photographic image adjustments were made.
Platelets are known to change shape and show partial aggregation when chilled. The goal of the initial experiments was to see if this behavior changed when platelets were incubated in the presence of PEG-400. Two standard random donor platelet concentrates, type O, were mixed by connecting the bags, followed by gravity mixing 8 times. This mixture was equally divided by weight into the two original platelet bags and either 10 ml of PBS or 10 ml of PEG-400 in PBS was added to the control and test unit respectively. The final concentration of PEG-400 in the unit was 2%. These units were then gently rotated at 70 cycles per minute, with a 1 inch stroke length, at 5° C., over 26 days. At the end of this time aliquots were examined and photographed. • PBS Control 2% PEG-400 in PBS

Polyethylene glycol [PEG-400]
filipin clustering / cholesterol capping vs PBS control (platelets [1]; 2% PEG-400 in PBS): less filipin clustering; also recorded: less cholesterol capping | filipin clustering / cholesterol capping vs PBS control (platelets [1]; 4% PEG-400 in PBS): less cholesterol capping | filipin clustering / cholesterol capping vs PBS control (platelets [1]; 4% PEG-400 in PBS, listed as PEG): less filipin clustering | platelet aggregation and rod shapes vs PBS control (platelets [2]): control was observed to be more aggregated and to have more rod shapes than the PEG test platelets
